Measured values reported in patent publication US20220143198A1, “COMPOSITIONS AND METHODS RELATED TO TETHERED KETHOXAL DERIVATIVES” (The University of Chicago, priority 2019, published 2022).

Key:
[1] = system: guanosine; test: Reversibility of kethoxal derivatives using GTP for competition (LCMS of free guanosine); assay type: physicochemical; details: 1:1 ratio
[2] = system: guanosine; test: Reactivity of kethoxal derivatives with guanosine (conversion rates of guanosine); assay type: biochemical
[3] = pH = 7.0, 10 min, excess GTP added after 10 min
[4] = pH = 7.0, 2 h, excess GTP competitor
[5] = pH = 7.0, 24 h, excess GTP competitor
[6] = pH = 7.8, S1:S2 = 2:1 (S1 guanosine, S2 kethoxal derivative)

## CCN(CC)C(C)C(=O)C=O (centres unmarked)
[1]; [3]
  Conversion of guanosine under competition condition: 66.9%
[1]; [4]
  Conversion of guanosine under competition condition: 66.1%
[1]; [5]
  Conversion of guanosine under competition condition: 36.3%

## O=CC(=O)c1ccc([N+](=O)[O-])cc1
[1]; [3]
  Conversion of guanosine under competition condition: 48.0%
[1]; [4]
  Conversion of guanosine under competition condition: 13.5%

## CC(OCCN=[N+]=[N-])C(=O)C=O (centres unmarked) [drawing 31]
[2]; pH = 7.8, S1:S2 = 1:1
  Conversion rate of guanosine: 86.9%
[2]; pH = 7.8, S1:S2 = 1:2
  Conversion rate of guanosine: 97.4%
[2]; [6]
  Conversion rate of guanosine: 51.6%

## CC(C)(OCCN=[N+]=[N-])C(=O)C=O [drawing 32]
[2]; pH = 7.8, S1:S2 = 1:1
  Conversion rate of guanosine: 81.6%
[2]; pH = 7.8, S1:S2 = 1:2
  Conversion rate of guanosine: 97.4%
[2]; [6]
  Conversion rate of guanosine: 51.3%

## [N-]=[N+]=NCCOCC(=O)C=O [drawing 33]
[2]; pH = 7.8, S1:S2 = 1:1
  Conversion rate of guanosine: 78.6%
[2]; pH = 7.8, S1:S2 = 1:2
  Conversion rate of guanosine: 95.4%
[2]; [6]
  Conversion rate of guanosine: 51.3%

## CC(OC(=O)CN=[N+]=[N-])C(=O)C=O (centres unmarked) [drawing 34]
[2]; pH = 7.8, S1:S2 = 1:1
  Conversion rate of guanosine: 77.5%
[2]; pH = 7.8, S1:S2 = 1:2
  Conversion rate of guanosine: 92.1%
[2]; [6]
  Conversion rate of guanosine: 43.6%

## CC(N=[N+]=[N-])C(=O)C=O (centres unmarked) [drawing 35]
[2]; pH = 7.8, S1:S2 = 1:1
  Conversion rate of guanosine: 71.2%
[2]; pH = 7.8, S1:S2 = 1:2
  Conversion rate of guanosine: 90.3%
[2]; pH = 7.8, S1:S2 = 1:3
  Conversion rate of guanosine: 96.5%
[2]; [6]
  Conversion rate of guanosine: 38.0%

## CC(Br)C(=O)C=O (centres unmarked) [drawing 36]
[2]; pH = 7.8, S1:S2 = 1:1
  Conversion rate of guanosine: 67.2%
[2]; pH = 7.8, S1:S2 = 1:2
  Conversion rate of guanosine: 89.9%
[2]; pH = 7.8, S1:S2 = 1:3
  Conversion rate of guanosine: 92.2%
[2]; [6]
  Conversion rate of guanosine: 35.8%

## [N-]=[N+]=NCCCC(=O)C=O [drawing 39]
[2]; pH = 7.8, S1:S2 = 1:1
  Conversion rate of guanosine: 48.0%
[2]; pH = 7.8, S1:S2 = 1:2
  Conversion rate of guanosine: 70.5%
[2]; pH = 7.8, S1:S2 = 1:3
  Conversion rate of guanosine: 88.9%
[2]; pH = 7.8, S1:S2 = 1:5
  Conversion rate of guanosine: 89.2%
[2]; [6]
  Conversion rate of guanosine: 23.8%

## CC(C(=O)C=O)N(C)C(=O)CN=[N+]=[N-] (centres unmarked) [drawing 40]
[2]; pH = 7.8, S1:S2 = 1:1
  Conversion rate of guanosine: 40.2%
[2]; pH = 7.8, S1:S2 = 1:2
  Conversion rate of guanosine: 66.7%
[2]; pH = 7.8, S1:S2 = 1:3
  Conversion rate of guanosine: 74.9%
[2]; pH = 7.8, S1:S2 = 1:5
  Conversion rate of guanosine: 83.2%

## [N-]=[N+]=NCCOCCC(=O)C=O [drawing 41]
[2]; pH = 7.8, S1:S2 = 1:1
  Conversion rate of guanosine: 41.1%
[2]; pH = 7.8, S1:S2 = 1:2
  Conversion rate of guanosine: 60.0%
[2]; pH = 7.8, S1:S2 = 1:3
  Conversion rate of guanosine: 66.4%
[2]; pH = 7.8, S1:S2 = 1:5
  Conversion rate of guanosine: 73.6%
[2]; [6]
  Conversion rate of guanosine: 25.2%

## [N-]=[N+]=NCCOC(F)C(=O)C=O (centres unmarked) [drawing 43]
[2]; pH = 7.8, S1:S2 = 1:1
  Conversion rate of guanosine: 30.9%
[2]; pH = 7.8, S1:S2 = 1:2
  Conversion rate of guanosine: 49.6%
[2]; pH = 7.8, S1:S2 = 1:3
  Conversion rate of guanosine: 69.5%
[2]; pH = 7.8, S1:S2 = 1:5
  Conversion rate of guanosine: 76.7%
[2]; pH = 7.8, S1:S2 = 1:10
  Conversion rate of guanosine: 81.6%

## [N-]=[N+]=NCCOC(F)(F)C(=O)C=O [drawing 44]
[2]; pH = 7.8, S1:S2 = 1:1
  Conversion rate of guanosine: 14.7%
[2]; pH = 7.8, S1:S2 = 1:2
  Conversion rate of guanosine: 28.9%
[2]; pH = 7.8, S1:S2 = 1:3
  Conversion rate of guanosine: 38.7%
[2]; pH = 7.8, S1:S2 = 1:5
  Conversion rate of guanosine: 63.1%
[2]; [6]
  Conversion rate of guanosine: 8.5%

## CC(OCCN=[N+]=[N-])C(=O)C=O (centres unmarked) [drawing 46]
[2]; pH = 7.0, S1:S2 = 1:1
  Conversion rate of guanosine: 70.6%
[2]; pH = 7.0, S1:S2 = 1:2
  Conversion rate of guanosine: 93.7%
[2]; pH = 7.0, S1:S2 = 2:1
  Conversion rate of guanosine: 39.6%

## CC(C)(OCCN=[N+]=[N-])C(=O)C=O [drawing 47]
[2]; pH = 7.0, S1:S2 = 1:1
  Conversion rate of guanosine: 46.7%
[2]; pH = 7.0, S1:S2 = 1:2
  Conversion rate of guanosine: 76.6%
[2]; pH = 7.0, S1:S2 = 2:1
  Conversion rate of guanosine: 23.6%

## [N-]=[N+]=NCCOCC(=O)C=O [drawing 48]
[2]; pH = 7.0, S1:S2 = 1:1
  Conversion rate of guanosine: 52.2%
[2]; pH = 7.0, S1:S2 = 1:2
  Conversion rate of guanosine: 79.2%
[2]; pH = 7.0, S1:S2 = 2:1
  Conversion rate of guanosine: 30.3%

## CC(OC(=O)CN=[N+]=[N-])C(=O)C=O (centres unmarked) [drawing 49]
[2]; pH = 7.0, S1:S2 = 1:1
  Conversion rate of guanosine: 50.1%
[2]; pH = 7.0, S1:S2 = 1:2
  Conversion rate of guanosine: 81.3%
[2]; pH = 7.0, S1:S2 = 2:1
  Conversion rate of guanosine: 29.5%

## CC(N=[N+]=[N-])C(=O)C=O (centres unmarked) [drawing 50]
[2]; pH = 7.0, S1:S2 = 1:1
  Conversion rate of guanosine: 46.7%
[2]; pH = 7.0, S1:S2 = 1:2
  Conversion rate of guanosine: 79.2%
[2]; pH = 7.0, S1:S2 = 1:4
  Conversion rate of guanosine: 95.3%
[2]; pH = 7.0, S1:S2 = 2:1
  Conversion rate of guanosine: 22.0%

## CC(Br)C(=O)C=O (centres unmarked) [drawing 51]
[2]; pH = 7.0, S1:S2 = 1:1
  Conversion rate of guanosine: 40.4%
[2]; pH = 7.0, S1:S2 = 1:2
  Conversion rate of guanosine: 81.2%
[2]; pH = 7.0, S1:S2 = 2:1
  Conversion rate of guanosine: 22.4%

## [N-]=[N+]=NCCCC(=O)C=O [drawing 54]
[2]; pH = 7.0, S1:S2 = 1:1
  Conversion rate of guanosine: 40.8%
[2]; pH = 7.0, S1:S2 = 1:2
  Conversion rate of guanosine: 63.2%
[2]; pH = 7.0, S1:S2 = 1:4
  Conversion rate of guanosine: 87.2%
[2]; pH = 7.0, S1:S2 = 2:1
  Conversion rate of guanosine: 19.8%

## CC(C(=O)C=O)N(C)C(=O)CN=[N+]=[N-] (centres unmarked) [drawing 55]
[2]; pH = 7.0, S1:S2 = 1:1
  Conversion rate of guanosine: 46.2%
[2]; pH = 7.0, S1:S2 = 1:2
  Conversion rate of guanosine: 64.2%
[2]; pH = 7.0, S1:S2 = 1:4
  Conversion rate of guanosine: 84.7%
[2]; pH = 7.0, S1:S2 = 2:1
  Conversion rate of guanosine: 20.4%

## [N-]=[N+]=NCCOCCC(=O)C=O [drawing 56]
[2]; pH = 7.0, S1:S2 = 1:1
  Conversion rate of guanosine: 38.3%
[2]; pH = 7.0, S1:S2 = 1:2
  Conversion rate of guanosine: 49.6%
[2]; pH = 7.0, S1:S2 = 2:1
  Conversion rate of guanosine: 16.8%

## O=CC(=O)c1ccccc1 [drawing 57]
[2]; pH = 7.0, S1:S2 = 1:1
  Conversion rate of guanosine: 22.5%
[2]; pH = 7.0, S1:S2 = 1:2
  Conversion rate of guanosine: 33.2%
[2]; pH = 7.0, S1:S2 = 1:4
  Conversion rate of guanosine: 51.5%
[2]; pH = 7.0, S1:S2 = 2:1
  Conversion rate of guanosine: 9.9%

## [N-]=[N+]=NCCOC(F)C(=O)C=O (centres unmarked) [drawing 58]
[2]; pH = 7.0, S1:S2 = 1:0
  Conversion rate of guanosine: 24.7%
[2]; pH = 7.0, S1:S2 = 1:1
  Conversion rate of guanosine: 6.4%
[2]; pH = 7.0, S1:S2 = 1:2
  Conversion rate of guanosine: 8.2%
[2]; pH = 7.0, S1:S2 = 1:4
  Conversion rate of guanosine: 16.5%
[2]; pH = 7.0, S1:S2 = 2:1
  Conversion rate of guanosine: 3.2%

## [N-]=[N+]=NCCOC(F)(F)C(=O)C=O [drawing 59]
[2]; pH = 7.0, S1:S2 = 1:0
  Conversion rate of guanosine: 9.8%
[2]; pH = 7.0, S1:S2 = 1:1
  Conversion rate of guanosine: 1.4%
[2]; pH = 7.0, S1:S2 = 1:2
  Conversion rate of guanosine: 1.9%
[2]; pH = 7.0, S1:S2 = 1:4
  Conversion rate of guanosine: 3.8%
[2]; pH = 7.0, S1:S2 = 2:1
  Conversion rate of guanosine: 0%

## O=CC(=O)Cc1ccccc1 [drawing 60]
[2]; pH = 7.0, S1:S2 = 1:1
  Conversion rate of guanosine: 22.5%
[2]; pH = 7.0, S1:S2 = 1:2
  Conversion rate of guanosine: 30.4%
[2]; pH = 7.0, S1:S2 = 2:1
  Conversion rate of guanosine: 9.0%

## CC(OCCN=[N+]=[N-])C(=O)C=O (centres unmarked) [drawing 77]
[1]; [3]
  Conversion of guanosine under competition condition: 71.4%
[1]; [4]
  Conversion of guanosine under competition condition: 60.8%
[1]; [5]
  Conversion of guanosine under competition condition: 28.9%

## O=CC(=O)c1ccccc1 [phenyl-substituted kethoxal derivative]
[2]; pH = 7.0, S1:S2 = 1:1
  Conversion rate of guanosine: 18.8%
[2]; pH = 7.0, S1:S2 = 1:2
  Conversion rate of guanosine: 37.6%
[2]; pH = 7.0, S1:S2 = 1:3
  Conversion rate of guanosine: 51.0%
[2]; pH = 7.0, S1:S2 = 1:5
  Conversion rate of guanosine: 67.0%
[2]; pH = 7.8, S1:S2 = 1:1
  Conversion rate of guanosine: 32.2%
[2]; pH = 7.8, S1:S2 = 1:2
  Conversion rate of guanosine: 51.2%
[2]; pH = 7.8, S1:S2 = 1:3
  Conversion rate of guanosine: 66.2%
[2]; pH = 7.8, S1:S2 = 1:5
  Conversion rate of guanosine: 80.1%
